Assay results from patent US20220347085A1, “REPELLENT COMPOSITION AND USES” (Université Bourgogne, priority 2019, published 2022).

Tested on: Drosophila suzukii
Experiment: Anesthesia test, Drosophila suzukii
Assay type: in vivo
Conditions: female flies
Description: The devices used were similar to the devices for studying the courtship (example 1 above), except for the volume of the space into which the files were introduced, which was 45.24 or 22.62 cm^3. 9 discs of filter paper (Whatman, filter paper 42), each soaked in 10 μl of a composition comprising butyric acid and/or propionic acid and/or a derivative of propionic acid diluted in paraffin oil were deposited in the device. The different compositions used comprised, respectively, 2% propionic acid or 2% butyric acid or 5% ethyl propanoate or 10% ethyl propanoate or 30% ethyl propanoate. For each composition, the number of flies was, respectively, 30 and 24 males, 30 and 11 females for Drosophila melanogaster, and 24, 16 and 4 males, 28, 26, 6, 5 and 4 females for Drosophila suzukii. In order to avoid any contact of the flies with the soaked disks of paper, a gauze (netting) was arranged above said papers. The drosophilae could move freely on said gauze. The quantity of compound, butyric acid or propionic acid, or of ethyl propanoate (odor) volatilized in the behavior chamber was equivalent to that of the device used for the courtship. Likewise, the flies were never in direct contact with the composition (no taste perception), only with the volatile particles (olfactory perception). The flies tested were introduced simultaneously, by group, into the enclosure. Their behavior was filed for 10 minutes, and a time required for leading to anesthesia was calculated over this period, depending on the concentration of butyric acid or propionic acid or ethyl propanoate used. The flies were considered anesthetized when they stopped moving and fell on their side.

Compound: CCOC(=O)CC [ethyl propanoate]
- time elapsed leading to anesthesia (5% in paraffin oil): approximately 6 minutes
- time elapsed leading to anesthesia (10% in paraffin oil): approximately 4 minutes
- time elapsed leading to anesthesia (30% in paraffin oil): 2 to 3 min
